# Experimental data reported in patent US9316633B2, “Methods for identifying inhibitors of solute transporters” (The Regents of the University of California, priority 2006, dated 2016).
# Biological target: T1, UT-B (Homo sapiens, UniProt Q13336)
# T1 construct: the indicator cells are red blood cells that endogenously express the UT-B urea transporter; endogenous in cells; host or cells: human red blood cells (whole venous blood, single donor)
# T1 sequence (Q13336 1-389): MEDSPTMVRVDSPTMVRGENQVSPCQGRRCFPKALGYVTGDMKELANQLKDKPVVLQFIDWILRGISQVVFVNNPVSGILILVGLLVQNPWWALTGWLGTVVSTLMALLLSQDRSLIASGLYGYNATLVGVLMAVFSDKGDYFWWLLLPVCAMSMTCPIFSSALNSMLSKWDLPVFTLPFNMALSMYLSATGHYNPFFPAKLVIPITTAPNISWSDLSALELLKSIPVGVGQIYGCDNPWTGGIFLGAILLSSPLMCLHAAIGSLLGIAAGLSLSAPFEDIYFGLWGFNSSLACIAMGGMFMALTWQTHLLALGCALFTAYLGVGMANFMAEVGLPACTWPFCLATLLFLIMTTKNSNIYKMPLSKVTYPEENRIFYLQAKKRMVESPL
# Assay: RBC lysis assay, human RBCs loaded with acetamide
# Type: cell-based
# Settings: Table 5, phthalazinamines; UT-B inhibitory potency
row,EC50 [nM],Compound
1,100,"COc1ccc(Nc2nnc(-c3ccc(C(N)=O)cc3)c3ccccc23)cc1 [ureainh-301, 4-(4-(4-methoxyphenylamino)phthalazin-1-yl)benzamide]"
2,200,"CN(C)C(=O)c1ccc(Nc2nnc(-c3ccc(C(N)=O)cc3)c3ccccc23)cc1 [ureainh-303, 4-(4-(4-carbamoylphenyl)phthalazin-1-ylamino)-N,N-dimethylbenzamide]"
3,600,"CNC(=O)c1ccc(Nc2nnc(-c3ccc(C(N)=O)cc3)c3ccccc23)cc1 [ureainh-304, 4-(4-(4-carbamoylphenyl)phthalazin-1-ylamino)-N-methylbenzamide]"
4,2000,"NC(=O)c1ccc(-c2nnc(Nc3ccc(O)cc3)c3ccccc23)cc1 [ureainh-306, 4-(4-(4-hydroxyphenylamino)phthalazin-1-yl)benzamide]"
5,3000,"NC(=O)c1ccc(-c2nnc(Nc3ccc(S(N)(=O)=O)cc3)c3ccccc23)cc1 [ureainh-307, 4-(4-(4-sulfamoylphenylamino)phthalazin-1-yl)benzamide]"
6,2000,"CCN(CC)C(=O)c1ccc(-c2nnc(Nc3ccc(C(=O)NC)cc3)c3ccccc23)cc1 [ureainh-308, N,N-diethyl-4-(4-(4-(methylcarbamoyl)phenylamino)phthalazin-1-yl)benzamide]"
7,5000,"CCN(CC)C(=O)c1ccc(-c2nnc(Nc3ccc(O)cc3)c3ccccc23)cc1 [ureainh-309, N,N-diethyl-4-(4-(4-hydroxyphenylamino)phthalazin-1-yl)benzamide]"
8,3000,"CCN(CC)C(=O)c1ccc(-c2nnc(Nc3ccc(C(=O)N(C)C)cc3)c3ccccc23)cc1 [ureainh-310, 4-(4-(4-(diethylcarbamoyl)phenyl)phthalazin-1-ylamino)-N,N-dimethylbenzamide]"
9,800,"CNC(=O)COc1ccc(Nc2nnc(-c3ccc(C(=O)NCCO)cc3)c3ccccc23)cc1 [ureainh-311, N-(2-hydroxyethyl)-4-(4-(4-(2-(methylamino)-2-oxoethoxy)phenylamino)phthalazin-1-yl)benzamide]"
10,1000,"COc1ccc(-c2nnc(Nc3ccc(OCC(N)=O)cc3)c3ccccc23)cc1 [ureainh-312, 2-(4-(4-(4-methoxyphenyl)phthalazin-1-ylamino)phenoxy)acetamide]"
11,10000,"COc1ccc(-c2nnc(Nc3ccc(-c4nc5ccccc5[nH]4)cc3)c3ccccc23)cc1 [ureainh-313, N-(4-(1H-benzo[d]imidazol-2-yl)phenyl)-4-(4-methoxyphenyl) phthalazin-1-amine]"
12,2000,"Cc1ccc(-c2nnc(Nc3ccc(OCC(N)=O)cc3)c3ccccc23)cc1 [ureainh-314, 2-(4-(4-p-tolylphthalazin-1-ylamino)phenoxy) acetamide]"
13,2000,"CNC(=O)COc1ccc(Nc2nnc(-c3ccc(C)cc3)c3ccccc23)cc1 [ureainh-315, N-methyl-2-(4-(4-p-tolylphthalazin-1-ylamino)phenoxy)acetamide]"
14,2000,"COc1ccc(Nc2nnc(-c3ccc(O)cc3)c3ccccc23)cc1 [ureainh-316, 4-(4-(4-methoxyphenylamino)phthalazin-1-yl)phenol]"
15,3000,"CC(=O)Nc1ccc(Nc2nnc(-c3ccc(O)cc3)c3ccccc23)cc1 [ureainh-317, N-(4-(4-(4-hydroxyphenyl)phthalazin-1-ylamino)phenyl)acetamide]"
16,2000,"NC(=O)COc1ccc(Nc2nnc(-c3ccccc3)c3ccccc23)cc1 [ureainh-318, 2-(4-(4-phenylphthalazin-1-ylamino)phenoxy) acetamide]"
17,3000,"CNC(=O)COc1ccc(Nc2nnc(-c3ccccc3)c3ccccc23)cc1 [ureainh-319, N-methyl-2-(4-(4-phenylphthalazin-1-ylamino)phenoxy)acetamide]"
18,4000,"COc1ccc(Nc2nnc(-c3ccccc3)c3ccccc23)cc1 [ureainh-320, N-(4-methoxyphenyl)-4-phenylphthalazin-1-amine]"
19,1000,"Cc1ccc(-c2nnc(Nc3ccc(C(N)=O)cc3)c3ccccc23)cc1S(=O)(=O)N(C)C [ureainh-321, 4-(4-(3-(N,N-dimethylsulfamoyl)-4-methylphenyl)phthalazin-1-ylamino) benzamide]"
20,2000,"Cc1ccc(-c2nnc(Nc3ccc(OCC(N)=O)cc3)c3ccccc23)cc1S(=O)(=O)N(C)C [ureainh-322, 2-(4-(4-(3-(N,N-dimethylsulfamoyl)-4-methylphenyl)phthalazin-1-ylamino)phenoxy)acetamide]"
21,2000,"COC(=O)c1ccc(Nc2nnc(-c3ccc(C)c(S(=O)(=O)NCCO)c3)c3ccccc23)cc1 [ureainh-323, methyl 4-(4-(3-(N-(2-hydroxyethyl)sulfamoyl)-4-methylphenyl)phthalazin-1-ylamino) benzoate]"
22,5000,"Cc1ccc(-c2nnc(Nc3ccc(C(N)=O)cc3)c3ccccc23)cc1S(=O)(=O)NCCO [ureainh-324, 4-(4-(3-(N-(2-hydroxyethyl)sulfamoyl)-4-methylphenyl)phthalazin-1-ylamino) benzamide]"
23,2000,"CNS(=O)(=O)c1cc(-c2nnc(Nc3ccc(OCC(N)=O)cc3)c3ccccc23)ccc1C [ureainh-325, 2-(4-(4-(4-methyl-3-(N-methylsulfamoyl)phenyl)phthalazin-1-ylamino)phenoxy)acetamide]"
24,2000,"CNC(=O)COc1ccc(Nc2nnc(-c3ccc(C)c(S(=O)(=O)NC)c3)c3ccccc23)cc1 [ureainh-326, N-methyl-2-(4-(4-(4-methyl-3-(N-methylsulfamoyl)phenyl)phthalazin-1-ylamino)phenoxy) acetamide]"
25,3000,"Cc1ccc(-c2nnc(Nc3ccc(O)cc3)c3ccccc23)cc1S(=O)(=O)N1CCOCC1 [ureainh-328, 4-(4-(4-methyl-3-(morpholinosulfonyl)phenyl)phthalazin-1-ylamino)phenol]"
26,5000,"Cc1ccc(-c2nnc(Nc3ccc(C(N)=O)cc3)c3ccccc23)cc1S(N)(=O)=O [ureainh-329, 4-(4-(4-methyl-3-sulfamoylphenyl)phthalazin-1-ylamino) benzamide]"
27,10000,"CNC(=O)COc1ccc(Nc2nnc(-c3ccc(C)c(S(N)(=O)=O)c3)c3ccccc23)cc1 [ureainh-330, N-methyl-2-(4-(4-(4-methyl-3-sulfamoylphenyl)phthalazin-1-ylamino)phenoxy)acetamide]"
28,9000,"Cc1ccc(-c2nnc(Nc3ccc(O)cc3)c3ccccc23)cc1S(=O)(=O)NC(C)(C)CO [ureainh-331, N-(1-hydroxy-2-methylpropan-2-yl)-5-(4-(4-hydroxyphenylamino)phthalazin-1-yl)-2-methylbenzenesulfonamide]"
29,2000,"COc1ccc(-c2nnc(Oc3ccccc3)c3ccccc23)cc1 [ureainh-332, 1-(4-methoxyphenyl)-4-phenoxyphthalazine]"
30,3000,"Cc1ccc(-c2nnc(Oc3ccccc3)c3ccccc23)cc1 [ureainh-333, 1-phenoxy-4-p-tolylphthalazine]"

# Same assay, conditions: Table 7, aminobenzimidazoles; UT-B inhibitory potency
row,EC50 [nM],Compound
1,300,"CCCn1c(NCc2cc(Cl)ccc2O)nc2ccccc21 [ureainh-401, 4-chloro-2-((1-propyl-1H-benzo[d]imidazol-2-ylamino)methyl)phenol]"
2,400,"CCn1c(NCc2cc(Cl)ccc2O)nc2ccccc21 [ureainh-402, 4-chloro-2-((1-ethyl-1H-benzo[d]imidazol-2-ylamino)methyl)phenol]"
3,5000,"CC(C)n1c(NCc2cc(Cl)ccc2O)nc2ccccc21 [ureainh-403, 4-chloro-2-((1-isopropyl-1H-benzo[d]imidazol-2-ylamino)methyl)phenol]"
4,400,"CC(C)n1c(NCc2cc(Br)ccc2O)nc2ccccc21 [ureainh-405, 4-bromo-2-((1-isopropyl-1H-benzo[d]imidazol-2-ylamino)methyl)phenol]"
5,1000,"C=CCn1c(NCc2cc(Br)ccc2O)nc2ccccc21 [ureainh-406, 2-((1-allyl-1H-benzo[d]imidazol-2-ylamino)methyl)-4-bromophenol]"
6,800,"CCN(CC)CCn1c(NCc2ccccc2O)nc2ccccc21 [ureainh-407, 2-((1-(2-(diethylamino)ethyl)-1H-benzo[d]imidazol-2-ylamino)methyl)phenol]"
7,900,"Oc1ccccc1CNc1nc2ccccc2n1CCN1CCCCC1 [ureainh-408, 2-((1-(2-(piperidin-1-yl)ethyl)-1H-benzo[d]imidazol-2-ylamino)methyl)phenol]"
8,6000,"Oc1ccccc1CNc1nc2ccccc2n1CCN1CCOCC1 [ureainh-412, 2-((1-(2-morpholinoethyl)-1H-benzo[d]imidazol-2-ylamino)methyl)phenol]"
9,1000,"CCCn1c(NCc2cc(C)ccc2O)nc2ccccc21 [ureainh-414, 4-methyl-2-((1-propyl-1H-benzo[d]imidazol-2-ylamino)methyl)phenol]"
10,1000,"Cc1ccc(O)c(CNc2nc3ccccc3n2C(C)C)c1 [ureainh-415, 2-((1-isopropyl-1H-benzo[d]imidazol-2-ylamino)methyl)-4-methylphenol]"
11,1000,"CCn1c(NCc2cc(C)ccc2O)nc2ccccc21 [ureainh-416, 2-((1-ethyl-1H-benzo[d]imidazol-2-ylamino)methyl)-4-methylphenol]"
12,2000,"CCCCn1c(NCc2cc(C)ccc2O)nc2ccccc21 [ureainh-417, 2-((1-butyl-1H-benzo[d]imidazol-2-ylamino)methyl)-4-methylphenol]"
13,6000,"CCCn1c(NCc2cc(OC)ccc2O)nc2ccccc21 [ureainh-418, 4-methoxy-2-((1-propyl-1H-benzo[d]imidazol-2-ylamino)methyl)phenol]"
